Laboratory results published in patent US20120172302A1, “COMPOSITION FOR THE TREATMENT OF BENIGN PROSTATE HYPERPLASIA” (priority 2009, published 2012).
Square brackets hold non-standard residues; d marks the D form. Peptide text beside a SMILES is read from it. * marks the point of attachment. dPhe(4-NHCONH2) = NC(=O)Nc1ccc(C[C@@H](N)C(=O)O)cc1; Dihydroorotyl(S) = O=C1C[C@@H](C(=O)*)NC(=O)N1; dPhe(4-Cl) = N[C@H](Cc1ccc(Cl)cc1)C(=O)O; Phe(4-NH2) = Nc1ccc(C[C@H](N)C(=O)O)cc1; d2Nal = N[C@H](Cc1ccc2ccccc2c1)C(=O)O; Lys(iPr) = CC(C)NCCCC[C@H](N)C(=O)O; d3Pal = N[C@H](Cc1cccnc1)C(=O)O

Columns and labels:
Format in all cases: in vivo, men
[1] = test system: testosterone; assay: Serum testosterone concentration-time profile (LC-MS/MS), clinical trial; details: for Mean time to second return of testosterone to baseline interval (after the second administration): only hypothetical (calculated, not measured)
[2] = test system: patients with BPH; assay: Peak (maximal) urinary flow by flowmetry, clinical trial; details: for Mean maximal urinary flow: baseline
Description: 2] Efficacy Endpoints—the measured Peak Urinary Flow, Post-void Residual Volume, and Prostate Volume.
Peak urinary flow was determined by flowmetry using the Uropower device (Wiest, World of Medicine AG, Germany). The device fulfilled the International Continence Society standards for maximum urinary flow. The measurement of urinary flow was done in sitting position.
The Qmax is the maximal urinary flow rate. It is the traditional parameter used in BPH trials and is a good indicator of degree of bladder outlet obstruction (BOO).

[3] = test system: patients with BPH; assay: IPSS global quality of life (QoL) question, clinical trial; details: for Percentage of patients feeling delighted, pleased, or mostly satisfied (IPSS Global QoL scores 0-2) / Percentage of patients feeling unhappy or terrible (IPSS Global QoL scores 5 and 6): combined group
Description: For each patient, the following parameters were measured or assessed (using the methods discussed below), at time points of screening (e.g. −7 days) day 0 (“baseline”), day 14, day 28 and day 42:
After the initial 6-week treatment period of the exploratory study had been completed, a 12-month follow-up period looking at long-term efficacy commenced. Interim data of the main efficacy variables (IPSS, IPSS Global QoL, prostate volume, urinary flow, and post-void residual volume—measured as set out below) after 6 months' follow-up are also presented herein Table 1, 2, 3 FIG. 1b), together with some IPSS data at 9 and 12 months (FIG. 1b).
Included in the IPSS is one item to evaluate QoL (IPSS-global QoL). The Global QoL Question was developed alongside the IPSS and was officially included as part of the IPSS in 1993 when the WHO formally recommended the IPSS for both symptom and QoL assessment. […] This question assesses the degree to which patients find their symptoms bothersome. Patients are asked about how they would feel if they were to spend the rest of their lives with their prostate symptoms just as they are now. The choices for answering this quality of life question ranged from “delighted” (rating=0) to “terrible” (rating=6).

[4] = 16+16 mg group, after the first administration
[5] = 16+16 mg group, after the second administration
[6] = 32+32 mg group, after the first administration
[7] = 32+32 mg group, after the second administration
[8] = first dose of the 32+32 mg group combined with the single dose 32 mg data
[9] = Day 42, all groups, patients violating the maximal uroflow inclusion criterion excluded
[10] = Month 6 follow-up, 32 mg group, n=7
[11] = Month 6 follow-up, 64 mg group, n=4
[12] = Month 6 follow-up, 16+16 mg group, n=6
[13] = Month 6 follow-up, 32+32 mg group, n=7

CC(=O)N[C@H](Cc1ccc2ccccc2c1)C(=O)N[C@H](Cc1ccc(Cl)cc1)C(=O)N[C@H](Cc1cccnc1)C(=O)N[C@@H](CO)C(=O)N[C@@H](Cc1ccc(NC(=O)[C@@H]2CC(=O)NC(=O)N2)cc1)C(=O)N[C@H](Cc1ccc(NC(N)=O)cc1)C(=O)N[C@@H](CC(C)C)C(=O)N[C@@H](CCCCNC(C)C)C(=O)N1CCC[C@H]1C(=O)N[C@H](C)C(N)=O [Degarelix, D-Alaninamide, N-acetyl-3-(2-naphthalenyl)-D-alanyl-4-chloro-D-phenylalanyl-3-(3-pyridinyl)-D-alanyl-L-seryl-4-[[[(4S)-hexahydro-2,6-dioxo-4-pyrimidinyl]carbonyl]amino]-L-phenylalanyl-4-[(aminocarbonyl)amino]-D-phenylalanyl-L leucyl-N6-(1-methylethyl)-L-lysyl-L-prolyl] (Ac-[d2Nal][dPhe(4-Cl)][d3Pal]S[Phe(4-NH2)](Dihydroorotyl(S))[dPhe(4-NHCONH2)]L[Lys(iPr)]P[dA]-NH2)
Mean minimal value of testosterone (Cnadir) ([1]; 32 mg group): 0.9 ng/mL
Mean time for first return of testosterone to baseline interval after the first administration ([1]; 32 mg group): 9.1 (SD=5.2) days
Mean time of testosterone Cnadir (tnadir) ([1]; 32 mg group): 1.3 days
Number of patients with testosterone below the castration level 0.5 ng/mL at one or more time-points ([1]; 32 mg group): 3 patients
Percentage of patients with testosterone below the castration level 0.5 ng/mL at one or more time-points ([1]; 32 mg group): 25%
Testosterone greatest change from baseline ([1]; 32 mg group): -4.2 ng/mL
Lowest mean testosterone level ([1]; 32 mg group, on Day 1): 0.9 ng/mL
Mean area of testosterone concentrations below 0.5 ng/mL ([1]; 32 mg group, range 0.0-0.1): 0.0 ng·days/mL
Mean minimal value of testosterone (Cnadir) ([1]; 64 mg group): 0.4 ng/mL
Mean time of testosterone Cnadir (tnadir) ([1]; 64 mg group): 8.8 days
Number of patients with testosterone below the castration level 0.5 ng/mL at one or more time-points ([1]; 64 mg group): 9 patients
Percentage of patients with testosterone below the castration level 0.5 ng/mL at one or more time-points ([1]; 64 mg group): 69%
Testosterone greatest change from baseline ([1]; 64 mg group): -4.7 ng/mL
Number of patients still below testosterone 0.5 ng/mL on Day 42 ([1]; 64 mg group, of the 8 patients with testosterone <=0.5 ng/mL): Five
Lowest mean testosterone level ([1]; 64 mg group, on Day 1): 0.4 ng/mL
Mean area of testosterone concentrations below 0.5 ng/mL ([1]; 64 mg group, range 0.0-15.2): 4.4 ng·days/mL
Time for testosterone level to recover above 0.5 ng/mL ([1]; 64 mg group, the other three of 8 patients): ≤ 5 days
Duration of castration (testosterone below 0.5 ng/mL) ([1]; 16+16 mg administration, the 2 castrated patients): less than 2 days
Mean time for first return of testosterone to baseline interval after the first administration ([1]; 16+16 mg group): 6.1 (SD=2.8) days
Number of patients with testosterone below the castration level 0.5 ng/mL at one or more time-points ([1]; 16+16 mg group): 2 patients
Percentage of patients with testosterone below the castration level 0.5 ng/mL at one or more time-points ([1]; 16+16 mg group): 15%
Testosterone greatest change from baseline ([1]; 16+16 mg group): -4.0 ng/mL
Mean minimal value of testosterone (Cnadir) [1, 4]: 1.4 ng/mL
Mean time of testosterone Cnadir (tnadir) [1, 4]: 1.1 days
Mean minimal value of testosterone (Cnadir) [1, 5]: 2.0 ng/mL
Mean time of testosterone Cnadir (tnadir) [1, 5]: 4.0 days
Lowest mean testosterone level ([1]; 16+16 mg group, on Day 1): 1.4 ng/mL
Mean time to second return of testosterone to baseline interval (after the second administration) ([1]; 16+16 mg group): 19.5 (SD=33.9) days
Mean area of testosterone concentrations below 0.5 ng/mL ([1]; 16+16 mg group, range 0.0-0.0): 0.0 ng·days/mL
Time for testosterone level to recover above 0.5 ng/mL ([1]; 16+16 and 32 mg groups, 4 of the 5 patients): ≤ 2 days
Time for testosterone level to recover above 0.5 ng/mL ([1]; 16+16 and 32 mg groups, the remaining patient of 5): ≤ 4 days
Mean time for first return of testosterone to baseline interval after the first administration ([1]; 32+32 mg group): 9.1 (SD=2.6) days
Number of patients not suppressed below 0.5 ng/mL after the first administration but reaching this level after the second injection ([1]; 32+32 mg group): Five
Number of patients with testosterone below the castration level 0.5 ng/mL at one or more time-points ([1]; 32+32 mg group): 9 patients
Number of subjects that had not regained testosterone levels >0.5 ng/mL at Day 42 ([1]; 32+32 mg group): Three
Percentage of patients with testosterone below the castration level 0.5 ng/mL at one or more time-points ([1]; 32+32 mg group): 75%
Testosterone greatest change from baseline ([1]; 32+32 mg group): -4.1 ng/mL
Time for testosterone level to recover above 0.5 ng/mL ([1]; 32+32 mg group, after first administration, 3 of 4 patients): ≤ 2 days
Mean minimal value of testosterone (Cnadir) [1, 6]: 0.6 ng/mL
Mean time of testosterone Cnadir (tnadir) [1, 6]: 3.2 days
Mean minimal value of testosterone (Cnadir) [1, 7]: 0.4 ng/mL
Mean time of testosterone Cnadir (tnadir) [1, 7]: 4.3 days
Lowest mean testosterone level ([1]; 32+32 mg group, after the second administration, on Day 17): 0.4 ng/mL
Number of patients with testosterone below 0.5 ng/mL after the first degarelix administration ([1]; 32+32 mg group, of the 9 patients with testosterone <=0.5 ng/mL): Four
Mean time to second return of testosterone to baseline interval (after the second administration) ([1]; 32+32 mg group): 64.2 (SD=83.5) days
Mean area of testosterone concentrations below 0.5 ng/mL ([1]; 32+32 mg group, range 0.0-15.3): 2.8 ng·days/mL
Mean testosterone level ([1]; Day 42, 32 mg group): 5.3 ng/mL
Mean testosterone level ([1]; Day 42, 64 mg group): 3.0 ng/mL
Mean testosterone level ([1]; Day 42, 16+16 mg group): 4.5 ng/mL
Mean testosterone level ([1]; Day 42, 32+32 mg group): 2.7 ng/mL
Number of patients with testosterone below the castration level 0.5 ng/mL at one or more time-points ([1]; all groups, of the 50 patients, up to Day 42): 22 patients
Mean testosterone level ([1]; baseline, 32 mg group): 5.2 ng/mL
Mean testosterone level ([1]; baseline, 64 mg group): 5.2 ng/mL
Mean testosterone level ([1]; baseline, 16+16 mg group): 5.5 ng/mL
Mean testosterone level ([1]; baseline, 32+32 mg group): 4.5 ng/mL
Duration of castration (testosterone below 0.5 ng/mL) ([1]; first dose of the 32+32 mg group combined with single dose 32 mg, the 8 castrated patients, generally): 2 to 4 days
Number of patients castrated (testosterone below 0.5 ng/mL) [1, 8]: 8 patients
Percentage of patients castrated (testosterone below 0.5 ng/mL) [1, 8]: 33%
Testosterone area below and time to return to the baseline interval, total 64 mg vs total 32 mg ([1]; groups given a total of 64 mg degarelix compared to the total dose 32 mg): more than 2 fold
Number of patients with maximal urinary flow decreased vs baseline ([2]; Day 42, all groups): 25 patients
Number of patients with maximal urinary flow increased vs baseline ([2]; Day 42, all groups): 24 patients
Number of patients with maximal urinary flow unchanged vs baseline ([2]; Day 42, all groups): 1 patient
Number of patients with decreased uroflow [2, 9]: 17
Number of patients with increased uroflow [2, 9]: 20
Mean maximal urinary flow ([2]; 32 mg group): 11.7 mL/s
Mean maximal urinary flow ([2]; 64 mg group): 9.1 mL/s
Mean maximal urinary flow ([2]; 16+16 mg group): 10.0 mL/s
Mean maximal urinary flow ([2]; 32+32 mg group): 9.7 mL/s
Mean IPSS global QoL score ([3]; Baseline of 6-month follow-up patients, 32 mg group, n=7): 2.8 (n = 7)
Mean IPSS global QoL score ([3]; Baseline of 6-month follow-up patients, 64 mg group, n=4): 4.6 (n = 4)
Mean IPSS global QoL score ([3]; Baseline of 6-month follow-up patients, 16+16 mg group, n=6): 4.5 (n = 6)
Mean IPSS global QoL score ([3]; Baseline of 6-month follow-up patients, 32+32 mg group, n=7): 4.3 (n = 7)
Mean IPSS global QoL score ([3]; Baseline, 32 mg group, N=12): 3.8 (1.7)
Mean IPSS global QoL score ([3]; Baseline, 64 mg group, N=13): 4.7 (1.4)
Mean IPSS global QoL score ([3]; Baseline, 16+16 mg group, N=13): 4.2 (1.1)
Mean IPSS global QoL score ([3]; Baseline, 32+32 mg group, N=12): 4.3 (1.3)
IPSS global QoL mean change from baseline ([3]; Day 42, 32 mg group): −2.1 (3.0)
Mean IPSS global QoL score ([3]; Day 42, 32 mg group): 1.8 (2.0)
IPSS global QoL mean change from baseline ([3]; Day 42, 64 mg group): −2.2 (1.6)
Mean IPSS global QoL score ([3]; Day 42, 64 mg group): 2.5 (1.3)
IPSS global QoL mean change from baseline ([3]; Day 42, 16+16 mg group): −1.2 (1.4)
Mean IPSS global QoL score ([3]; Day 42, 16+16 mg group): 2.9 (1.4)
IPSS global QoL mean change from baseline ([3]; Day 42, 32+32 mg group): −2.4 (1.9)
Mean IPSS global QoL score ([3]; Day 42, 32+32 mg group): 1.9 (1.6)
Percentage of patients feeling delighted, pleased, or mostly satisfied (IPSS Global QoL scores 0-2) ([3]; Day 42): 58%
Percentage of patients feeling unhappy or terrible (IPSS Global QoL scores 5 and 6) ([3]; Day 42): 12%
IPSS global QoL change from baseline [3, 10]: −1.4 (1.1)
Mean IPSS global QoL score [3, 10]: 1.4 (1.5)
IPSS global QoL change from baseline [3, 11]: −0.8 (1.7)
Mean IPSS global QoL score [3, 11]: 3.8 (1.3)
IPSS global QoL change from baseline [3, 12]: −0.3 (0.5)
Mean IPSS global QoL score [3, 12]: 4.2 (1.5)
IPSS global QoL change from baseline [3, 13]: −2.7 (2.1)
Mean IPSS global QoL score [3, 13]: 1.6 (0.8)
Percentage of patients feeling delighted, pleased, or mostly satisfied (IPSS Global QoL scores 0-2) ([3]; baseline): 8%
Percentage of patients feeling unhappy or terrible (IPSS Global QoL scores 5 and 6) ([3]; baseline): 48%
